Results published in article PMC11672299, “Conjugation of Polycationic Peptides Extends the Efficacy Spectrum of β‐Lactam Antibiotics” (Advanced Science, 2024).
Peptide text beside a SMILES is read from it. * marks the point of attachment. X1 = CC(C)(O/N=C(\C(=O)N[C@@H]1C(=O)N2C(C(=O)[O-])=C(C[n+]3ccccc3)CS[C@H]12)c1csc(N)n1)C(=O)NCCCCCCN1C(=O)CC(*)C1=O

Assays:
A. bohemicus DSM 100419 = assay: MIC by broth microdilution; assay type: cell-based; conditions: median (n = 3)
Description: (§1) The minimum inhibitory concentration (MIC) of the β‐lactam–peptide conjugates was determined by broth microdilution as previously described.^[ [17] ^] Briefly, in cation‐adjusted MHB II medium, a twofold serial dilution of the compounds was prepared in 96‐well round‐bottom polystyrene or polypropylene microtiter plates with each well containing 50 µL. The plates were inoculated with 50 µL bacterial suspension and the final inoculum, in a total volume of 100 µL, contained 5 × 10^5 CFU mL^−1. The microplates were incubated for 20 h at 37 ± 1 °C. The lowest concentration preventing visible bacterial growth was considered the MIC value. For susceptibility testing of combinations of β‐lactamase‐inhibitors with either a β‐lactam antibiotic or a β‐lactam–peptide conjugate, fixed concentrations of the inhibitors according to the EUCAST (European Committee on Antimicrobial Susceptibility Testing) guidelines (clavulanic acid = 2 mg L^−1, avibactam = 4 mg L^−1) were used.

B. subtilis DSM 10 = assay: microbe, parasite or virus in culture; assay type: cell-based; conditions: DSM 10, 20 h
Description: as §1

PBP2A = biological target: T1, PBP2A (Bacillus subtilis, UniProt P54488); assay: Gel‐based PBP affinity assay (Bocillin FL competition); assay type: binding; conditions: B. subtilis membrane fractions, competition with Bocillin FL penicillin; compared with parent β‐lactam
T1 construct: endogenous in cells; host or cells: B. subtilis DSM 10, extracted membrane protein fraction
T1 sequence (P54488 whole entry): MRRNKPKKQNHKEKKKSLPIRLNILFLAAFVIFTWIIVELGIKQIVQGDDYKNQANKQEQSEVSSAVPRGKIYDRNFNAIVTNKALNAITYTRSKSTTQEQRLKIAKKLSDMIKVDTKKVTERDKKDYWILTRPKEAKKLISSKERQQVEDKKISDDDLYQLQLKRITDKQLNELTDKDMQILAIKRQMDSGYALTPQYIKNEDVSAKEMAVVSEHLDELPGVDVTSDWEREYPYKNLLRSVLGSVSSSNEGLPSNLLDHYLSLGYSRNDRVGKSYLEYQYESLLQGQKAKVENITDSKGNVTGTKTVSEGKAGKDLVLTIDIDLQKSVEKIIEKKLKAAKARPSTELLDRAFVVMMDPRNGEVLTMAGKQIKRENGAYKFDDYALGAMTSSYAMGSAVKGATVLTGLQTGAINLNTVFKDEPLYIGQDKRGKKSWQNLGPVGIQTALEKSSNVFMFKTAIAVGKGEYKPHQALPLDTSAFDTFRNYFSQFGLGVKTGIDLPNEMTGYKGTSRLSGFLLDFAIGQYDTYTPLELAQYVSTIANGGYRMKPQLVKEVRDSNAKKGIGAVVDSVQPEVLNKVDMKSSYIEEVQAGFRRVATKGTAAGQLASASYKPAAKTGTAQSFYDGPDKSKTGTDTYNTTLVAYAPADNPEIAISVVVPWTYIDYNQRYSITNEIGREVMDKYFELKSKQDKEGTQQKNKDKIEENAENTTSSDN
Description: (§2) B. subtilis DSM 10 and E. faecalis ATCC 51 299 (equal to DSM 12 956) membrane protein fractions were extracted according to the protocol of Dean et al. with minor modifications.^[ [34] ^] From a growing overnight bacterial culture, 3 L of LB (Luria‐Bertani) medium or TSB (tryptic soy broth) were inoculated with B. subtilis DSM 10 and E. faecalis ATCC 51 299, respectively, to obtain an OD600 = 0.3. The cultures were grown to an OD600 = 0.6–0.8 while shaking at 37 °C and cells were harvested by centrifugation at 4000 g for 30 min at 4 °C. The resulting pellet was washed twice with pre‐cooled PBS and resuspended in 30 mL of ice‐cooled PBS. The suspension was sonicated on ice (10 cycles of 30 s at 50% power for B. subtilis; 12 cycles of 30 s at 80% power for E. faecalis; 2 min intervals between cycles) using an Omni Ruptor 4000 ultrasonic homogenizer (Omni International, Kennesaw, GA, USA). Afterwards, the suspension was centrifuged at 7000 g for 10 min at 4 °C. The clear supernatant was transferred into a 50 mL polypropylene tube and centrifuged in a Beckman Coulter centrifuge equipped with a JA‐20 fixed‐angle rotor (Beckman Coulter, Krefeld, Germany) at 50 000 g for 1 h at 4 °C. The resulting pellet was washed with ice‐cold PBS and centrifuged a second time. The pellet was resuspended in 2 mL PBS and aliquots were stored at −80 °C. The protein content was determined using Bradford reagent (VWR International, Darmstadt, Germany) and Pierce BCA (bicinchoninic acid) protein assay kits (Thermo Fisher Scientific, Waltham, MA, USA) for membrane fractions of B. subtilis and E. faecalis, respectively.
(§3) Each dilution was combined with B. subtilis (30 µg) or E. faecalis (15 µg) extracted membrane fractions. As reference samples, membrane fractions incubated with only PBS were prepared. Reaction mixtures were incubated for 20 min at 37 °C while shaking at 400 rpm. Next, Bocillin FL penicillin (Thermo Fisher Scientific, Waltham, MA, USA) was added to obtain a final concentration of 20 µM in the mixture. Samples were incubated for 30 min at 37 °C while shaking at 400 rpm. To denature the samples, 4× Laemmli sample buffer (Bio‐Rad Laboratories, Feldkirchen, Germany) was added, and the samples incubated for 10 min at 70 °C. Afterwards, the samples were centrifuged for 5 min at 13 000 rpm. Samples were separated by SDS‐PAGE using a 10% Tris‐glycine gel for 100 min at 180 V. The bands were visualized using a Typhoon FLA 9500 imager (GE Healthcare, Chicago, IL, USA) with excitation at 473 nm. The gel images were analyzed using ImageJ software. Brightness and contrast were adjusted to improve the signal‐to‐noise ratio and the background signal was subtracted over the whole image. Next, integrated density values of the gel bands were measured and Bocillin FL penicillin labeling of each PBP in antibiotic‐treated samples were set in proportion to the reference sample. IC50 values were calculated with GraphPad Prism software (version 8.0.1) using inhibitor versus normalized response variable slope and least‐squares fit. […] The mean was calculated using the IC50 values of at least two independent assays for each antibiotic.

[1] = system: K. pneumoniae Tü20‐036 (clinical isolate); assay: microbe, parasite or virus in culture; assay type: cell-based; conditions: Tü20‐036 (clinical isolate, 20 h)
Description: as §1

[2] = system: A. pittii Tü21‐041 (clinical isolate); assay: microbe, parasite or virus in culture; assay type: cell-based; conditions: 20 h
Description: as §1

[3] = system: C. freundii Tü21‐052 (clinical isolate); assay: microbe, parasite or virus in culture; assay type: cell-based; conditions: 20 h
Description: as §1

[4] = system: E. casseliflavus ATCC 700327; assay: microbe, parasite or virus in culture; assay type: cell-based; conditions: ATCC 700327, 20 h
Description: as §1

E. faecalis ATCC 29212 = assay: microbe, parasite or virus in culture; assay type: cell-based; conditions: ATCC 29212, 20 h
Description: as §1

[5] = system: E. coli Tü20‐025 (clinical isolate); assay: microbe, parasite or virus in culture; assay type: cell-based; conditions: Tü20‐025 (clinical isolate, 20 h)
Description: as §1

PBP5 = assay: Gel‐based PBP affinity assay (Bocillin FL competition); assay type: binding; conditions: PBPs from vancomycin‐resistant E. faecalis; compared with parent; at concentrations considerably higher than MICs
Description: as §2, §3

PBPs of B. subtilis = assay: as above; assay type: binding; conditions: at the concentrations tested (0.016–250 µM)
Description: as §2, §3

MIC [4] [µg/mL]	MIC (E. faecalis ATCC 29212) [µg/mL]	Compound	MIC (B. subtilis DSM 10) [µg/mL]	affinity to PBP2A (PBP2A)	further results
		CC(C)(O/N=C(\C(=O)N[C@@H]1C(=O)N2C(C(=O)[O-])=C(C[n+]3ccccc3)CS[C@H]12)c1csc(N)n1)C(=O)NCCCCCCN1C(=O)CC(SC[C@H](NC(=O)[C@H](CCCCN)NC(=O)[C@H](CCCCN)NC(=O)[C@H](CCCCN)NC(=O)[C@H](CCCCN)NC(=O)[C@H](CCCCN)NC(=O)[C@H](CCCCN)NC(=O)[C@H](CCCCN)NC(=O)[C@H](CCCCN)NC(=O)[C@@H](N)CCCCN)C(N)=O)C1=O (some centres unmarked) [CTZ-K9] (H-KKKKKKKKKC(X1)-NH2; N-terminus and C-terminus assumed)			antimicrobial activity (rank among CTZ–peptide conjugates) (A. bohemicus DSM 100419): most potent conjugates
		C[C@@H](O)[C@H]1C(=O)N2C(C(=O)O)=C(S[C@H]3C[C@@H](C(=O)Nc4cccc(C(=O)O)c4)N(C(=O)C4CCC(CN5C(=O)CC(SC[C@H](NC(=O)[C@H](CCCNC(=N)N)NC(=O)[C@H](CCCNC(=N)N)NC(=O)[C@H](CCCNC(=N)N)NC(=O)[C@H](CCCNC(=N)N)NC(=O)[C@H](CCCNC(=N)N)NC(=O)[C@@H](N)CCCNC(=N)N)C(N)=O)C5=O)CC4)C3)[C@H](C)[C@H]12 (some centres unmarked) [ERT-R6C]	< 0.02	higher affinity	
>64	>64	N=C(N)NCCC[C@H](NC(=O)[C@H](CCCNC(=N)N)NC(=O)[C@H](CCCNC(=N)N)NC(=O)[C@H](CCCNC(=N)N)NC(=O)[C@H](CCCNC(=N)N)NC(=O)[C@@H](N)CCCNC(=N)N)C(=O)N[C@@H](CSC1CC(=O)N(CCCCCCN)C1=O)C(N)=O (some centres unmarked) [BB linker‐R6]	>64		MIC [1]: >64 µg/mL; MIC [2]: >64 µg/mL; MIC [3]: >64 µg/mL; MIC [5]: >64 µg/mL
		C[C@H]1[C@H](NC(=O)/C(=N\OC(C)(C)C(=O)NCCCCCCN2C(=O)CC(SC[C@H](NC(=O)[C@H](CCCNC(=N)N)NC(=O)[C@H](CCCNC(=N)N)NC(=O)[C@H](CCCNC(=N)N)NC(=O)[C@H](CCCNC(=N)N)NC(=O)[C@H](CCCNC(=N)N)NC(=O)[C@@H](N)CCCNC(=N)N)C(N)=O)C2=O)c2csc(N)n2)C(=O)N1S(=O)(=O)O (some centres unmarked) [AZT-R6]	0.06	higher affinity	binding to PBP5 (PBP5): slightly improved binding
> 64	> 64	N=C(N)NCCC[C@H](NC(=O)[C@H](CCCNC(=N)N)NC(=O)[C@H](CCCNC(=N)N)NC(=O)[C@H](CCCNC(=N)N)NC(=O)[C@H](CCCNC(=N)N)NC(=O)[C@@H](N)CCCNC(=N)N)C(=O)N[C@@H](CS)C(N)=O [R6C]	> 64		binding to the PBPs of B. subtilis (PBPs of B. subtilis): not observed
